Assay results as given in patent US12123028B2, “Viral inactivation methods for continuous manufacturing of antibodies” (Bayer HealthCare LLC, priority 2018, dated 2024).

Tests used:
X-MuLV = assay: Dual X-MuLV inactivation by low pH and detergent in mAb protein A eluate, remaining infectivity by TCID50 assay on PG-4 cells; type: cell-based, Xenotropic Murine Leukemia Virus; details: for required inactivation time compared with 0.2% Tween 80 / time required for X-MuLV inactivation: 16° C.; for treatment time to completely inactivate X-MuLV: 18° C.
Protocol: […] The pH adjusted eluates were then filtered by a 0.22 um filter. Various volumes of 5% detergent stock solution were then added to the filtered protein A eluates. The low pH protein A eluates containing Mega-10, Tween 80 or Tween 20 were pre-incubated at a 16° C. water bath prior to spiking with X-MuLV at a 1:20 ratio. After a thorough mixing, an aliquot of sample was removed immediately and neutralized with 1 M Tris buffer to stop low pH viral inactivation, then immediately quenched with diluent at 1:12 for Mega-10 or at 1:100 for Tween 20 and Tween 80 to stop viral inactivation by the detergent. The collected sample was designated as a time-zero reference. The remaining spiked eluate was returned to the water bath and the samples were collected at indicated times to evaluate the viral inactivation kinetics. The remaining X-MuLV infectivity in the samples post-inactivation treatment was determined by a TCID50 assay that is an endpoint dilution assay to quantify the amount of virus required to produce a cytopathic effect in 50% of inoculated tissue culture cells. Virus titers were estimated using the Spearman-Karber method and reported as TCID50/mL with a calculated 95% confidence interval (CI). Briefly, a sufficient number of 96-well plates with PG-4 (feline S^+L^−, ATCC#CRL-2032) cells were prepared the day before starting the viral inactivation experiments and incubated overnight in a 37° C. humidified CO2 incubator. A set of ten 3.2 fold dilution of the diluted positive control (1:100) and viral inactivated samples were prepared in a dilution block. Each set of the 11 serial dilutions of the samples were inoculated correspondingly onto wells (100 μL per well) of the first 11 columns in a 96-well plate that had been pre-seeded with PG-4 cells. The 12th column in the same plate was inoculated with the corresponding diluent to serve as non-virus negative control. The positive control was prepared by spiking the filtered neutralized protein A eluate with X-MuLV at a 1:20 ratio. The inoculated plates were then incubated in a 37° C. humidified CO2 incubator for approximate 2 hours. A volume of 100 uL of 2× assay medium (92% McCoy's 5A medium, 4% FBS, 2% Penicillin/Streptomycin, 2% L-Glutamine) was added to each well of the plates at the end of incubation. The plates were then returned to the same incubator, and continued incubation for 6 days. Each well of the plates were scored under a microscope for the presence of cytopathic effect (CPE) and the results were recorded in a scoring sheet. Virus titers were then estimated using the Spearman-Karber method and reported as TCID50/mL with a calculated 95% confidence interval (CI).

retroviruses = details: Triton X-100 ≥0.5%; hold time ≥60 minutes; 15-25° C.; pH 6.0-8.0; clarified, cell-free intermediate of mAb or IgG Fc fusion protein; cited from earlier work

CCCCCCCC/C=C\CCCCCCCC(=O)OCCOCC(OCCO)C1OCC(OCCO)C1OCCO (stereo not shown) [Tween 80]
time needed for inactivating X-MuLV to the level below the detection limit (X-MuLV; dual treatment: mAb2 protein A eluate pH 4.05 with 0.5% Tween 80, 16° C. (120 minutes by pH 4.0 alone at 18° C.)): 10 min
incubation time needed for inactivation of X-MuLV to the level below the detection limit (X-MuLV; dual treatment: mAb3 (IgG2) protein A eluate pH 3.97 with 0.5% Tween 80, 16° C. (120 minutes by low pH alone)): 5 min
required inactivation time (X-MuLV; dual treatment: mAb3 protein A eluate pH 3.99 with 0.2% Tween 80, 16° C. (120 minutes without detergent)): 5 min
required inactivation time compared with 0.2% Tween 80 (X-MuLV; dual treatment: mAb3 protein A eluate pH 3.99 with 0.3% Tween 80): no further reducing of time
required inactivation time compared with 0.2% Tween 80 (X-MuLV; dual treatment: mAb3 protein A eluate pH 3.99 with 0.5% Tween 80): no further reducing of time
time required for X-MuLV inactivation (X-MuLV; mAb3 protein A eluate containing 0.1% Tween 80 at pH 3.7): 0 min
time required for X-MuLV inactivation (X-MuLV; mAb3 protein A eluate containing 0.1% Tween 80 at pH 3.8): 1 min
time required for X-MuLV inactivation (X-MuLV; mAb3 protein A eluate containing 0.1% Tween 80 at pH 3.9): 2.5 min
time required for X-MuLV inactivation (X-MuLV; mAb3 protein A eluate containing 0.1% Tween 80 at pH 4.0): 10 min
treatment time to completely inactivate X-MuLV (X-MuLV; mAb4 protein A eluate at pH 4.11 containing 1% Tween 80): 1 h
treatment time to completely inactivate X-MuLV (X-MuLV; mAb4 protein A eluate at pH 4.20 containing 1% Tween 80): 3 h
treatment time to completely inactivate X-MuLV (X-MuLV; mAb4 protein A eluate at pH 4.30 containing 1% Tween 80): 4 h

Triton X-100
LRF of retroviral inactivation (retroviruses): ≥ 4.0
